Reference: patent publication US12440476B2, “Agents that target telomerase reverse transcriptase (TERT) for treating cancer and sensitizing cancer cells to genotoxic therapy” (Northwestern University, priority 2022, dated 2025)

What was measured:
MCF7 cells [1] = assay: Clonogenic survival after irradiation (radiosensitivity); format: cell-based, human; conditions: MCF7 cells; NU-1 0.5 μM, BIBR 1532 10 μM, MST-312 1 μM for 1 h prior to IR; 2 Gy
Experimental: (§1) To assess radiosensitivity, MCF7, Saos-2, or CT26 cells were seeded in 6-well plates at 100 cells per well in triplicate, allowed to attach overnight and treated with DMSO or TERT inhibitors at subtoxic concentrations for 1 h prior to IR. MCF7 cells were treated with 0.5 μM NU-1, 10 μM BIBR 1532, or 1 μM MST-312, Saos-2 cells with 1 μM NU-1 or 20 μM BIBR 1532 and CT26 cells with 1 μM NU-1, 20 μM BIBR 1532 or 2 μM MST-312. Doses of 0, 1, 2, 3, 4, or 5 Gy were applied using a GammaCell ^60Co γ-ray source (Nordion) at a dose rate of 7.09 cGy/sec. After that MCF7 and Saos-2 cells were cultured for 3 weeks and CT26 for 2 weeks, then fixed and stained with crystal violet. Colonies of at least 50 cells were counted. Data from three independent biological replicates were acquired. The surviving fraction (SF) was calculated using the following formula: […]

Saos-2 cells = assay: as above; format: cell-based, human; conditions: NU-1 1 μM
Experimental: as §1

CT26 cells [2] = assay: as above; format: cell-based, mouse; conditions: for Sensitization of CT26 cells to radiation: non-toxic doses; for Mean SF2 (surviving fraction at 2 Gy): CT26 cells, NU-1 1 μM, BIBR 1532 20 μM, MST-312 2 μM for 1 h prior to IR
Experimental: as §1

CT26 cells [3] = assay: Clonogenicity assay (inhibitor alone); format: cell-based, mouse; conditions: 1 μM NU-1, 2 μM MST, 20 μM BIBR
Experimental: MCF7, Saos-2, or CT26 cells were seeded in 6-well plates at 100 cells per well in triplicate and allowed to attach overnight. MCF7 or CT26 cells were then treated with DMSO vehicle or TERT inhibitors in final concentration of 0.25, 0.5, 0.75, 1, 2 μM for NU-1, 2.5, 5, 7.5, 10, 20 μM for BIBR 1532, or 1, 2, 3, 4, 5 μM for MST-312. Saos-2 cells were treated with DMSO vehicle or TERT inhibitors in final concentration of 0.25, 0.5, 0.75, 1, 2 μM for NU-1 or 2.5, 5, 10, 20, 40 μM for BIBR 1532. The final volume of cell culture medium was 3 mL per well. MCF7 and Saos-2 cells were continuously cultured for 3 weeks and CT26 for 2 weeks in the presence of TERT inhibitors, fixed in methanol for 5 min, then stained with 0.5% crystal violet for 10 min at room temperature. After washing with water, the plates were dried at room temperature and imaged with an iBright Imaging System (Thermo Fisher Scientific).

CT26 cells [4] = assay: Senescence-associated beta-galactosidase (SA-β-Gal) assay; format: cell-based, mouse; conditions: non-toxic doses, 10 Gy, 5 days
Experimental: (§2) MCF7, Saos-2, or CT26 cells were seeded at 3×10^4 per well in 6-well plates and allowed to attach to plate overnight. For TERT inhibition, MCF7 cells were treated with DMSO vehicle, NU-2 (0.5 μM), NU-1 (0.5 μM), chrolactomycin (0.5 μM), BIBR 1532 (10 μM), or MST-312 (1 μM) for 1 h prior to IR, Saos-2 cells were treated with DMSO vehicle, NU-2 (1 μM), NU-1 (1 μM), chrolactomycin (1 μM), BIBR 1532 (20 μM), or MST-312 (1 μM) for 1 h prior to IR, and CT26 cells were treated with MSO vehicle, NU-2 (1 μM), NU-1 (1 μM), chrolactomycin (1 μM), BIBR 1532 (20 μM), or MST-312 (2 μM) for 1 h prior to IR. Then MCF7 and Saos-2 cells were irradiated with 0 or 6 Gy and CT26 cells with 0 or 10 Gy. After IR, MCF7 and Saos-2 cells were continuously cultured for 7 days and CT26 for 5 days, then fixed in 2% PFA and stained with staining buffer (1 mg/ml X-Gal (Golden Bio), 40 mM citric acid/sodium phosphate, 150 mM NaCl, 2 mM MgCl2, 3.3 mM K3[Fe(CN)6], 3.3 mM K4[Fe(CN)6], pH=6) for 16 h at 37° C., then washed with warm PBS three times and imaged in PBS within a week. Images were captured on a Zeiss Axiovert 200M microscope with a 20× Plan-NeoFluar objective and Axiocam digital camera. SA-β-Gal-positive and -negative cells were counted in more than 5 fields, yielding an average percentage indicated on each SA-β-Gal image as mean±SD. Three replicates were performed.
To examine the roles for STING, CT26 cells were seeded at 2×10^4 per well in 12-well plates and allowed to attach overnight. STING inhibitor C178 (0 or 4 μM) was added, followed by the addition of DMSO vehicle, NU-1 (1 μM), MST-312 (2 μM) or chrolactomycin (1 μM) for 1 h prior to 0 or 10 Gy. CT26 cells were cultured for 5 days, surviving cells were washed twice in PBS and cultured in fresh immune cell culture medium overnight. The CT26 cells were then cocultured with BMDCs for 12-16 h at a 1:2 ratio, and BMDCs were collected and analyzed after coculturing, as described above.

MCF7 cells [5] = assay: as above; format: cell-based, human
Experimental: as §2, with “For TERT inhibition, MCF7 cells were treated with DMSO vehicle, NU-2 (0.5 μM), NU-1 (0.5 μM), chrolactomycin (0.5 μM), BIBR 1532 (10 μM), or MST-312 (1 μM) for 1 h prior to IR, Saos-2 cells were treated with DMSO vehicle, NU-2 (1 μM), NU-1 (1 μM), chrolactomycin (1 μM), BIBR 1532 (20 μM), or MST-312 (1 μM) for 1 h prior to IR, and CT26 cells were treated with MSO vehicle, NU-2 (1 μM), NU-1 (1 μM), chrolactomycin (1 μM), BIBR 1532 (20 μM), or MST-312 (2 μM) for 1 h prior to IR.” left out

MCF7-FUCCI cells = assay: Time-lapse live-cell analysis of cell cycle; format: cell-based, human; conditions: 0.5 μM for 1 h, then 6 Gy, 6 days
Experimental: MCF7-FUCCI cells were seeded at 3×10^4 per well in 6-well plates, allowed to attach overnight, then treated with 0.5 μM NU-2 control, NU-1 or chrolactomycin for 1 h, followed by 6 Gy. Then, live-cell imaging was conducted using the IncuCyteS3. Phase contrast along with green and red channels were acquired at 20× magnification with scanning every 2 h for 6 days. 16 non-overlapping fields were captured for each well. Representative consecutive images were used to create the movies using Fiji (Schindelin et al., 2012).

CD8+ T cells = assay: In vitro T cell priming assay (CFSE dilution); format: cell-based, mouse; conditions: DCs stimulated by inhibitor treated and irradiated (10 Gy) CT26 cells; 5 days; NU-1 1 μM, MST 2 μM
Experimental: To evaluate effects of TERT on tumor immunogenicity, CT26 cells were seeded at […] per well in 12-well plates, allowed to attach overnight, and then treated with DMSO, NU-1 (1 μM), or MST-312 (2 μM) for 1 h, followed by 0 or 10 Gy. 5 days after IR, the media were removed, cells washed with PBS, and fresh immune cell culture medium added. CT26 cells were then cultured overnight, followed by coculturing with immature BMDCs for 12-16 h at a 1:2 ratio. After coculture, the suspension BMDCs were collected into round bottom FACS tubes, washed with PBS, and stained with Zombie yellow (1:1000, BioLegend) for 10 min at room temperature. […] After PBS washing, cells were resuspended in 300 μL Cell Staining Buffer and analyzed using a BD Fortessa 4-15 HTS Flow cytometer within 2 hours. Data were then analyzed by FlowJo software. […]
Splenocytes isolated from CT26 immunized mice were stained with 0.5 μM carboxyfluorescein succinimidyl ester (CFSE) (Thermo Fisher Scientific, Cat #C34554) for 10 min at room temperature (Quah et al., 2007). […] Cells were analyzed using a BD Fortessa 4-15 HTS flow cytometer and FlowJo software. […]

| Structure (SMILES) | Mean SF2 (surviving fraction at 2 Gy) (MCF7 cells [1]) | Radiosensitization in clonogenic survival assay (Saos-2 cells; Saos-2 (telomerase negative), BIBR 20 μM) | Mean SF2 (surviving fraction at 2 Gy) (Saos-2 cells; Saos-2 cells, BIBR 1532 20 μM for 1 h prior to IR, 2 Gy) | Sensitization of CT26 cells to radiation (CT26 cells [2]) | Mean SF2 (surviving fraction at 2 Gy) (CT26 cells [2]) | Tolerance in clonogenic assay (inhibitor alone) (CT26 cells [3]) | Senescence induction by IR (CT26 cells [4]) | Enhancement of senescence after IR at low concentration (MCF7 cells [5]; 50 nM, 7 days after IR) | Surviving cells arrested with G1 marker expression and senescent morphology (MCF7-FUCCI cells) [%] | Proliferating CD8+ T cells (CD8+ T cells) [%] | SA-β-Gal+ cells (MCF7 cells [5]; 7 days after IR (6 Gy)) [%] |
| --- | --- | --- | --- | --- | --- | --- | --- | --- | --- | --- | --- |
| C/C(=C\C(=O)Nc1ccccc1C(=O)O)c1ccc2ccccc2c1 [BIBR 1532] | 0.256 | Neither NU-1 nor BIBR displayed radiosensitization | 0.580 | had no similar effects | 0.727 | non-toxic | had no similar effects | – | – | – | – |
| C=C1C(=O)[C@]2(OC)C(=O)O[C@@]34C[C@H](C)C(C(=O)O)=C[C@@H]3CCC[C@@H](C)C[C@@H](C)[C@H]1O[C@H]24 [CHRO, chrolactomycin, reference compound] | – | – | – | – | – | – | – | sufficient to enhance senescence after IR | ~80 | – | – |
| O=C(Nc1cccc(NC(=O)c2cccc(O)c2O)c1)c1cccc(O)c1O [MST-312] | 0.245 | – | – | sensitized CT26 cells to radiation | 0.407 | tolerated | enhanced senescence induction by IR | – | – | 30.4 | – |
| COC(=O)[C@@]1(C)C(=O)C[C@@H](C)O[C@H]1CCc1cn(Cc2ccc(F)cc2F)nn1 [NU-2] | – | – | – | – | – | – | – | – | ~40 | – | ~34 |
